According to US20230143604A1, “QW DOSING OF GIP RECEPTOR AGONIST PEPTIDE COMPOUNDS AND USES THEREOF” (TAKEDA PHARMACEUTICAL COMPANY LIMITED, priority 2020, published 2023):
Starred links: 1 amine or outer side, 2 acyl side, 3 side chain; linkers in the order of their positions; H or OH if unused. Non-standard residues stand in square brackets, D forms with d. Residues, ends and D or L forms follow the SMILES beside them. Groups on a side chain read outwards from the residue. *: point of attachment. C18 diacid = O=C(O)CCCCCCCCCCCCCCCCC(=O)*; C17 diacid = O=C(O)CCCCCCCCCCCCCCCC(=O)*; γGlu = O=C(O)[C@H](CCC(=O)[*:2])N[*:1]; NMeY = CN[C@@H](Cc1ccc(O)cc1)C(=O)O; AEEA = NCCOCCOCC(=O)O; Aib = CC(C)(N)C(=O)O

Experiment: physchem
Procedure: Solubility of the GIPR peptides may be determined by dissolution in a phosphate buffer followed by quantitation using liquid chromatography, for example, High Performance Liquid Chromatogry (HPLC). An illustrative method is provided. For determination of the solubility of the GIPr agonist peptides, 3 mg of peptides are weighted out in a small glass vial. 100 μL of 200 mM Phosphate buffer pH 7.4 are added and the vial is sonicated/votexed as necessary for a maximum of 1 min. […] If insoluble material is observed in the tube the addition of 100 μL of buffer and mixing is repeated until complete dissolution.
3 mg of peptides are weighted out in a small glass vial. 100 uL of 200 mM Phosphate buffer pH 7.4 are added and the vial is sonicated/votexed as necessary for a maximum of 1 min. […] If insoluble material is observed in the tube the addition of 100 uL of buffer and mixing is repeated until complete dissolution.

[1] = pH 7.4, aqueous buffer, pH 7.4 Phosphate Buffer - Solubility, 200 mM Phosphate buffer pH 7.4
[2] = pH 7.4, solubility in phosphate buffer at pH 7.4, 200 mM phosphate buffer pH 7.4

In the case of `CC[C@H](C)[C@H](NC(=O)[C@H](CO)NC(=O)[C@H](Cc1ccc(O)cc1)NC(=O)[C@H](CC(=O)O)NC(=O)[C@H](CO)NC(=O)[C@@H](NC(=O)[C@H](Cc1ccccc1)NC(=O)[C@@H](NC(=O)CNC(=O)[C@H](CCC(=O)O)NC(=O)C(C)(C)NC(=O)[C@@H](N)Cc1ccc(O)cc1)[C@@H](C)O)[C@@H](C)CC)C(=O)N[C@@H](C)C(=O)N[C@@H](CC(C)C)C(=O)N[C@@H](CC(=O)O)C(=O)N[C@@H](CCCNC(=N)N)C(=O)N[C@H](C(=O)N[C@@H](Cc1c[nH]cn1)C(=O)N[C@@H](CCC(N)=O)C(=O)N[C@@H](CCC(N)=O)C(=O)N[C@@H](CC(N)=O)C(=O)N[C@@H](Cc1ccccc1)C(=O)N[C@H](C(=O)N[C@@H](CC(N)=O)C(=O)N[C@@H](Cc1c[nH]c2ccccc12)C(=O)N[C@@H](CC(C)C)C(=O)N[C@@H](CC(C)C)C(=O)N[C@@H](C)C(=O)N[C@@H](CCC(N)=O)C(=O)N[C@@H](CCCCNC(=O)COCCOCCNC(=O)COCCOCCNC(=O)CC[C@H](NC(=O)CCCCCCCCCCCCCCCCC(=O)O)C(=O)O)C(=O)O)C(C)C)[C@@H](C)CC` [Compound 249] (H-Y[Aib]EGTFISDYSIALDRIHQQNFVNWLLAQK([AEEA-AEEA-γGlu-C18 diacid])-OH; N-terminus and C-terminus assumed), the solubility (pH 7.4, aqueous buffer) was ≥ 6.8 mg/mL.

For `CC[C@H](C)[C@H](NC(=O)[C@H](CCCCN)NC(=O)[C@H](CC(=O)O)NC(=O)[C@H](CC(C)C)NC(=O)[C@H](C)NC(=O)[C@@H](NC(=O)[C@H](CO)NC(=O)[C@H](Cc1ccc(O)cc1)NC(=O)[C@H](CC(=O)O)NC(=O)[C@H](CO)NC(=O)[C@@H](NC(=O)[C@H](Cc1ccccc1)NC(=O)[C@@H](NC(=O)CNC(=O)[C@H](CCC(=O)O)NC(=O)C(C)(C)NC(=O)[C@@H](N)Cc1ccc(O)cc1)[C@@H](C)O)[C@@H](C)CC)[C@@H](C)CC)C(=O)N[C@@H](C)C(=O)N[C@@H](CCC(N)=O)C(=O)N[C@@H](CCC(N)=O)C(=O)N[C@@H](CCCCNC(=O)COCCOCCNC(=O)COCCOCCNC(=O)CC[C@H](NC(=O)CC[C@H](NC(=O)CCCCCCCCCCCCCCCC(=O)O)C(=O)O)C(=O)O)C(=O)N[C@@H](Cc1ccccc1)C(=O)N[C@H](C(=O)N[C@@H](CCC(=O)O)C(=O)N[C@@H](Cc1c[nH]c2ccccc12)C(=O)N[C@@H](CC(C)C)C(=O)N[C@@H](CC(C)C)C(=O)N[C@@H](C)C(=O)N[C@@H](CCC(N)=O)C(=O)N[C@@H](CCCNC(=N)N)C(=O)N1CCC[C@H]1C(=O)N[C@@H](CO)C(=O)N[C@@H](CO)C(=O)NCC(=O)N[C@@H](C)C(=O)N1CCC[C@H]1C(=O)N1CCC[C@H]1C(=O)N1CCC[C@H]1C(=O)N[C@@H](CO)C(=O)O)C(C)C` [Compound 134] (H-Y[Aib]EGTFISDYSIALDKIAQQK([AEEA-AEEA-γGlu-γGlu-C17 diacid])FVEWLLAQRPSSGAPPPS-OH), the solubility [1] was ≥ 30 mg/mL and the solubility [2] was ≥ 15 mg/mL.

In the case of `CC[C@H](C)[C@H](NC(=O)[C@H](CO)NC(=O)[C@H](Cc1ccc(O)cc1)NC(=O)[C@H](CC(=O)O)NC(=O)[C@H](CO)NC(=O)[C@@H](NC(=O)[C@H](Cc1ccccc1)NC(=O)[C@@H](NC(=O)CNC(=O)[C@H](CCC(=O)O)NC(=O)C(C)(C)NC(=O)[C@H](Cc1ccc(O)cc1)NC)[C@@H](C)O)[C@@H](C)CC)C(=O)N[C@@H](C)C(=O)N[C@@H](CC(C)C)C(=O)N[C@@H](CC(=O)O)C(=O)N[C@@H](CCCNC(=N)N)C(=O)NC(C)(C)C(=O)N[C@@H](CCCCNC(=O)COCCOCCNC(=O)COCCOCCNC(=O)CC[C@H](NC(=O)CCCCCCCCCCCCCCCC(=O)O)C(=O)O)C(=O)N[C@@H](CCC(N)=O)C(=O)NC(C)(C)C(=O)N[C@@H](CC(=O)O)C(=O)N[C@@H](Cc1ccccc1)C(=O)N[C@H](C(=O)N[C@@H](CC(N)=O)C(=O)N[C@@H](Cc1c[nH]c2ccccc12)C(=O)N[C@@H](CC(C)C)C(=O)N[C@@H](CC(C)C)C(=O)N[C@@H](C)C(=O)N[C@@H](CCC(N)=O)C(=O)N[C@@H](CCCNC(=N)N)C(=O)N1CCC[C@H]1C(=O)N[C@@H](CO)C(=O)N[C@@H](CO)C(=O)NCC(=O)N[C@@H](C)C(=O)N1CCC[C@H]1C(=O)N1CCC[C@H]1C(=O)N1CCC[C@H]1C(=O)N[C@@H](CO)C(N)=O)C(C)C` [Compound 25] (H-[NMeY][Aib]EGTFISDYSIALDR[Aib]K([AEEA-AEEA-γGlu-C17 diacid])Q[Aib]DFVNWLLAQRPSSGAPPPS-NH2), the solubility [1] was ≥ 30 mg/mL and the solubility [2] was ≥ 15 mg/mL.

For `CC[C@H](C)[C@H](NC(=O)[C@H](CO)NC(=O)[C@H](Cc1ccc(O)cc1)NC(=O)[C@H](CC(C)C)NC(=O)[C@H](CO)NC(=O)[C@@H](NC(=O)[C@H](Cc1ccccc1)NC(=O)[C@@H](NC(=O)CNC(=O)[C@H](CCC(=O)O)NC(=O)C(C)(C)NC(=O)[C@H](Cc1ccc(O)cc1)NC)[C@@H](C)O)[C@@H](C)CC)C(=O)N[C@@H](C)C(=O)N[C@@H](CC(C)C)C(=O)N[C@@H](CC(=O)O)C(=O)N[C@@H](CCCNC(=N)N)C(=O)N[C@@H](CCCCNC(=O)CNC(=O)CNC(=O)CNC(=O)CNC(=O)CNC(=O)CNC(=O)CCCCCCCCCCCCCCCCC(=O)O)C(=O)N[C@@H](Cc1c[nH]cn1)C(=O)N[C@@H](CCC(N)=O)C(=O)NC(C)(C)C(=O)N[C@@H](CC(N)=O)C(=O)N[C@@H](Cc1ccccc1)C(=O)N[C@H](C(=O)N[C@@H](CC(N)=O)C(=O)N[C@@H](Cc1c[nH]c2ccccc12)C(=O)N[C@@H](CC(C)C)C(=O)N[C@@H](CC(C)C)C(=O)N[C@@H](C)C(=O)N[C@@H](CCC(N)=O)C(=O)N[C@@H](CCCNC(=N)N)C(=O)N1CCC[C@H]1C(=O)N[C@@H](CO)C(=O)N[C@@H](CO)C(=O)NCC(=O)N[C@@H](C)C(=O)N1CCC[C@H]1C(=O)N1CCC[C@H]1C(=O)N1CCC[C@H]1C(=O)N[C@@H](CO)C(=O)N[C@@H](CCCNC(=N)N)C(N)=O)C(C)C` [Compound 277], the solubility (phosphate buffer, pH 7.4, aqueous buffer) was < 15 mg/mL.

With `CC[C@H](C)[C@H](NC(=O)[C@H](Cc1ccccc1)NC(=O)[C@@H](NC(=O)CNC(=O)[C@H](CCC(=O)O)NC(=O)C(C)(C)NC(=O)[C@H](Cc1ccc(O)cc1)NC)[C@@H](C)O)C(=O)N[C@@H](CO)C(=O)N[C@@H](CC(=O)O)C(=O)N[C@@H](Cc1ccc(O)cc1)C(=O)N[C@@H](CO)C(=O)N[C@H](C(=O)NC(C)(C)C(=O)N[C@@H](CC(C)C)C(=O)N[C@@H](CC(=O)O)C(=O)N[C@@H](CCCNC(=N)N)C(=O)N[C@@H](CCCCNC(=O)COCCOCCNC(=O)COCCOCCNC(=O)CC[C@H](NC(=O)CC[C@H](NC(=O)CCCCCCCCCCCCCCCC(=O)O)C(=O)O)C(=O)O)C(=O)N[C@@H](C)C(=O)N[C@@H](CCC(N)=O)C(=O)NC(C)(C)C(=O)N[C@@H](CC(N)=O)C(=O)N[C@@H](Cc1ccccc1)C(=O)N[C@H](C(=O)N[C@@H](CC(N)=O)C(=O)N[C@@H](Cc1c[nH]c2ccccc12)C(=O)N[C@@H](CC(C)C)C(=O)N[C@@H](CC(C)C)C(=O)N[C@@H](C)C(=O)N[C@@H](CCC(N)=O)C(=O)N[C@@H](CCCNC(=N)N)C(=O)NCC(=O)NCC(=O)NCC(=O)NCC(=O)N[C@@H](CO)C(N)=O)C(C)C)[C@@H](C)CC` [Compound 271] (H-[NMeY][Aib]EGTFISDYSI[Aib]LDRK([AEEA-AEEA-γGlu-γGlu-C17 diacid])AQ[Aib]NFVNWLLAQRGGGGS-NH2) the solubility (pH 7.4, aqueous buffer) was ≥ 6 mg/mL.

With `CC[C@H](C)[C@H](NC(=O)[C@H](CCCCN)NC(=O)[C@H](CC(=O)O)NC(=O)[C@H](CC(C)C)NC(=O)[C@H](C)NC(=O)[C@@H](NC(=O)[C@H](CO)NC(=O)[C@H](Cc1ccc(O)cc1)NC(=O)[C@H](CC(=O)O)NC(=O)[C@H](CO)NC(=O)[C@@H](NC(=O)[C@H](Cc1ccccc1)NC(=O)[C@@H](NC(=O)CNC(=O)[C@H](CCC(=O)O)NC(=O)C(C)(C)NC(=O)[C@@H](N)Cc1ccc(O)cc1)[C@@H](C)O)[C@@H](C)CC)[C@@H](C)CC)C(=O)N[C@@H](C)C(=O)N[C@@H](CCC(N)=O)C(=O)NC(C)(C)C(=O)N[C@@H](CCCCNC(=O)COCCOCCNC(=O)COCCOCCNC(=O)CC[C@H](NC(=O)CC[C@H](NC(=O)CCCCCCCCCCCCCCCCC(=O)O)C(=O)O)C(=O)O)C(=O)N[C@@H](Cc1ccccc1)C(=O)N[C@H](C(=O)N[C@@H](CCC(=O)O)C(=O)N[C@@H](Cc1c[nH]c2ccccc12)C(=O)N[C@@H](CC(C)C)C(=O)N[C@@H](CC(C)C)C(=O)N[C@@H](C)C(=O)N[C@@H](CCC(N)=O)C(=O)N[C@@H](CCCNC(=N)N)C(=O)NCC(=O)O)C(C)C` [Compound 153] (H-Y[Aib]EGTFISDYSIALDKIAQ[Aib]K([AEEA-AEEA-γGlu-γGlu-C18 diacid])FVEWLLAQRG-OH) the solubility (pH 7.4) was ≥ 15 mg/mL and the solubility (pH 7.4, aqueous buffer) was ≥ 30 mg/mL.

With `CC[C@H](C)[C@H](NC(=O)[C@H](CO)NC(=O)[C@H](Cc1ccc(O)cc1)NC(=O)[C@H](CC(=O)O)NC(=O)[C@H](CO)NC(=O)[C@@H](NC(=O)[C@H](Cc1ccccc1)NC(=O)[C@@H](NC(=O)CNC(=O)[C@H](CCC(=O)O)NC(=O)C(C)(C)NC(=O)[C@H](Cc1ccc(O)cc1)NC)[C@@H](C)O)[C@@H](C)CC)C(=O)N[C@@H](C)C(=O)N[C@@H](CC(C)C)C(=O)N[C@@H](CC(=O)O)C(=O)N[C@@H](CCCNC(=N)N)C(=O)NC(C)(C)C(=O)N[C@@H](C)C(=O)N[C@@H](CCC(N)=O)C(=O)NC(C)(C)C(=O)N[C@@H](CCCCNC(=O)COCCOCCNC(=O)COCCOCCNC(=O)CC[C@H](NC(=O)CC[C@H](NC(=O)CCCCCCCCCCCCCCCCC(=O)O)C(=O)O)C(=O)O)C(=O)N[C@@H](Cc1ccccc1)C(=O)N[C@H](C(=O)N[C@@H](CCC(=O)O)C(=O)N[C@@H](Cc1c[nH]c2ccccc12)C(=O)N[C@@H](CC(C)C)C(=O)N[C@@H](CC(C)C)C(=O)N[C@@H](C)C(=O)N[C@@H](CCC(N)=O)C(=O)N[C@@H](CO)C(=O)N1CCC[C@H]1C(=O)NCC(=O)O)C(C)C` [Compound 119] (H-[NMeY][Aib]EGTFISDYSIALDR[Aib]AQ[Aib]K([AEEA-AEEA-γGlu-γGlu-C18 diacid])FVEWLLAQSPG-OH) the solubility (pH 7.4) was ≥ 15 mg/mL and the solubility (pH 7.4, aqueous buffer) was ≥ 30 mg/mL.
